Reference: ChEMBL document CHEMBL1255423, “Dinitroaniline activity in Toxoplasma gondii expressing wild-type or mutant alpha-tubulin” (Antimicrob Agents Chemother, 2010)
Active and inactive are the calls of the source. The rule behind the calls is not given here.

Tests used:
Format in all cases: functional, organism-based
Toxoplasma gondii [1] = assay: Antimicrobial activity against Toxoplasma gondii RH containing alpha1-tubulin R243S mutation infected in HFF cells by plaque assay
Toxoplasma gondii [2] = assay: Antimicrobial activity against Toxoplasma gondii RH containing alpha1-tubulin I235V mutation infected in HFF cells by plaque assay
Toxoplasma gondii [3] = assay: Antimicrobial activity against Toxoplasma gondii RH containing alpha1-tubulin T239I mutation infected in HFF cells by plaque assay
Toxoplasma gondii [4] = assay: Antimicrobial activity against Toxoplasma gondii RH containing alpha1-tubulin L136F mutation infected in HFF cells by plaque assay
Toxoplasma gondii [5] = assay: Antimicrobial activity against Toxoplasma gondii RH infected in HFF cells by plaque assay
Toxoplasma gondii [6] = assay: Antimicrobial activity against Toxoplasma gondii RH containing alpha1-tubulin V4L mutation infected in HFF cells by plaque assay
Toxoplasma gondii [7] = assay: Antimicrobial activity against Toxoplasma gondii RH containing alpha1-tubulin I235L mutation infected in HFF cells by plaque assay
Toxoplasma gondii [8] = assay: Antimicrobial activity against Toxoplasma gondii RH containing alpha1-tubulin H28Q mutation infected in HFF cells by plaque assay
Toxoplasma gondii [9] = assay: Antimicrobial activity against Toxoplasma gondii RH containing alpha1-tubulin F24H mutation infected in HFF cells by plaque assay
Toxoplasma gondii [10] = assay: Antimicrobial activity against Toxoplasma gondii RH containing alpha1-tubulin S6I mutation infected in HFF cells by plaque assay
Toxoplasma gondii [11] = assay: Antimicrobial activity against Toxoplasma gondii RH containing alpha1-tubulin R243C mutation infected in HFF cells by plaque assay
Toxoplasma gondii [12] = assay: Antimicrobial activity against Toxoplasma gondii RH containing alpha1-tubulin I235T mutation infected in HFF cells by plaque assay
Toxoplasma gondii [13] = assay: Induction of parasite shape change Toxoplasma gondii RH infected in HFF cells at 0.25 uM by phase contrast microscopy
Toxoplasma gondii [14] = assay: Induction of parasite microtubule disruption Toxoplasma gondii RH infected in HFF cells by antitubulin antibody staining
Cryptosporidium parvum = assay: Antimicrobial activity against Cryptosporidium parvum by short-term in vitro culture assay

Compound	IC50 (Toxoplasma gondii [1])	IC50 (Toxoplasma gondii [2])	IC50 (Toxoplasma gondii [3])	IC50 (Toxoplasma gondii [4])	IC50 (Toxoplasma gondii [5])	IC50 (Toxoplasma gondii [6])	IC50 (Toxoplasma gondii [7])	IC50 (Toxoplasma gondii [8])	IC50 (Toxoplasma gondii [9])	IC50 (Toxoplasma gondii [10])	IC50 (Toxoplasma gondii [11])	IC50 (Toxoplasma gondii [12])	Activity (Toxoplasma gondii [13])	Activity (Toxoplasma gondii [14])	IC50 (Cryptosporidium parvum)
CCCN(CCC)c1c([N+](=O)[O-])cc(S(=O)(=O)Nc2ccccc2)cc1[N+](=O)[O-]	13.3 µM	4.7 µM	17.1 µM	9.7 µM	6.7 µM	26.2 µM	7.7 µM	12.4 µM	17.2 µM	12.4 µM	17 µM	16.9 µM	–	–	–
COP(=S)(NC(C)C)Oc1ccc(C)cc1[N+](=O)[O-] (centres undefined) [AMIPROPHOS METHYL]	19.1 µM	1.5 µM	28.5 µM	28.5 µM	1 µM	2.1 µM	3.9 µM	5.1 µM	10 µM	3.3 µM	5.9 µM	7.1 µM	–	–	–
CCCCN(CC)c1c([N+](=O)[O-])cc(C(F)(F)F)cc1[N+](=O)[O-] [BENFLURALIN]	21.7 µM	3.7 µM	22.9 µM	27.7 µM	1.5 µM	18.8 µM	4.6 µM	15.2 µM	15.7 µM	7.4 µM	12 µM	9.3 µM	–	–	–
CCC(C)Nc1c([N+](=O)[O-])cc(C(C)(C)C)cc1[N+](=O)[O-] (centres undefined) [BUTRALIN]	25.1 µM	3.8 µM	28.7 µM	32 µM	1.8 µM	32.1 µM	9.1 µM	10.2 µM	24.2 µM	4.5 µM	12.8 µM	7.4 µM	–	–	–
CCN(CC)c1c([N+](=O)[O-])cc(C(F)(F)F)c(N)c1[N+](=O)[O-] [DINITRAMINE]	18.4 µM	0.089 µM	26.6 µM	12.5 µM	0.045 µM	3.4 µM	0.32 µM	0.51 µM	0.37 µM	0.42 µM	0.33 µM	0.32 µM	Active	Active	–
C=C(C)CN(CC)c1c([N+](=O)[O-])cc(C(F)(F)F)cc1[N+](=O)[O-] [ETHALFLURALIN]	19.5 µM	0.65 µM	28.7 µM	24 µM	0.26 µM	13.5 µM	1.4 µM	4.2 µM	2.1 µM	2.5 µM	1.6 µM	1.7 µM	–	–	–
CCCN(CCCl)c1c([N+](=O)[O-])cc(C(F)(F)F)cc1[N+](=O)[O-] [FLUCHLORALIN]	17.7 µM	0.77 µM	20.5 µM	22.2 µM	0.33 µM	8 µM	1 µM	1.6 µM	3.2 µM	1.9 µM	2.2 µM	2.1 µM	–	–	1.81 µM
CCCN(CCC)c1c([N+](=O)[O-])cc(C(C)C)cc1[N+](=O)[O-] [ISOPROPALIN]	13.5 µM	2.2 µM	15 µM	15 µM	0.88 µM	7 µM	2.2 µM	3.4 µM	3.5 µM	2.2 µM	4 µM	4.3 µM	–	–	–
CCCN(CCC)c1c([N+](=O)[O-])cc(S(C)(=O)=O)cc1[N+](=O)[O-] [NITRALIN]	23.9 µM	1.6 µM	30.3 µM	31.3 µM	0.5 µM	19.2 µM	2.1 µM	1.8 µM	3.7 µM	2.1 µM	4.3 µM	4.9 µM	–	–	4.5 µM
CCCN(CCC)c1c([N+](=O)[O-])cc(S(N)(=O)=O)cc1[N+](=O)[O-] [ORYZALIN]	16 µM	2.3 µM	25.3 µM	27.7 µM	0.25 µM	14.7 µM	1.6 µM	1.4 µM	1.26 µM	1.5 µM	2.2 µM	5.5 µM	–	–	0.7 µM
CCC(CC)Nc1c([N+](=O)[O-])cc(C)c(C)c1[N+](=O)[O-] [PENDIMETHALIN]	9.7 µM	0.34 µM	12.2 µM	13.2 µM	0.26 µM	3.2 µM	1 µM	2.5 µM	3.2 µM	0.75 µM	1.1 µM	0.71 µM	–	–	0.19 µM
CCCN(CC1CC1)c1c([N+](=O)[O-])cc(C(F)(F)F)cc1[N+](=O)[O-] [PROFLURALIN]	20.4 µM	1.5 µM	22.1 µM	21.2 µM	0.61 µM	8.2 µM	1.5 µM	2.8 µM	4.3 µM	2.6 µM	3.2 µM	3.9 µM	–	–	1.9 µM
CCCN(CCC)c1c([N+](=O)[O-])cc(C(F)(F)F)cc1[N+](=O)[O-] [TRIFLURALIN]	23.3 µM	1.8 µM	23.4 µM	27 µM	0.52 µM	13.8 µM	1.9 µM	5.3 µM	4.2 µM	2.8 µM	4.1 µM	5.1 µM	–	–	1.94 µM
